Seven compounds from PubChem BioAssay (NCI) can be followed below.

Among the test systems are SW-620 colon; 786-0 renal; SNB-75 CNS; HS 578T breast; RXF 393 renal; A549 NSCLC; OVCAR-5 ovarian; PC-3 prostate; MCF7 breast; MALME-3M melanoma.
Holding throughout (experiment): inhibition of tumour cell growth, NCI panel, 48 h

Where “and” joins values, the source holds several entries; their conditions need not be identical. Identical values can stand only once.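 Each compound was tested at five concentrations against cells in 96-well plates for 48 hours. The concentration for 50% growth inhibition is given as GI50. At the TGI there is no net growth.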

As for `Clc1cc(Cl)c(OCC#CI)cc1Cl`, the GI50 in the assay with SW-620 colon was 1.76 µM; in the assay with 786-0 renal it was 1.69 µM; with SNB-75 CNS, 6.13 µM; with HS 578T breast, 16.9 µM; in the assay with RXF 393 renal, 2.37 µM; in the assay with A549 NSCLC, 16.8 µM. Further, the results for the GI50 in the assay on OVCAR-5 ovarian, with PC-3 prostate and in the assay with MCF7 breast were 13.7 µM, 12.7 µM and 1.69 µM, respectively. Further, the TGI in the assay with SW-620 colon turned out to be 3.88 µM; in the assay with 786-0 renal it was 3.39 µM; with SNB-75 CNS, 20 µM; in the assay on HS 578T breast, 50.4 µM; with RXF 393 renal, 6.28 µM; with A549 NSCLC, 31.4 µM. The TGI with OVCAR-5 ovarian came out at 27.2 µM; in the assay on PC-3 prostate, 27.9 µM; with MCF7 breast, 3.58 µM.

With `C=CCOC1OC(CO[Si](C)(C)C(C)(C)C)C(OCc2ccccc2)C(OCc2ccccc2)C1OCc1ccccc1` (configuration not stated), the TGI in the assay with MALME-3M melanoma was > 100 µM; in the assay with SW-620 colon it was > 100 µM; with 786-0 renal it was 22.3 µM; with SNB-75 CNS, 51.1 µM; in the assay on HS 578T breast, > 100 µM; in the assay with A549 NSCLC it was > 100 µM. Further, the TGI with OVCAR-5 ovarian, in the assay on PC-3 prostate and in the assay with MCF7 breast was > 100 µM each time.

With `O=C(/C(=C/c1ccc([N+](=O)[O-])cc1)c1ccccc1)c1ccccc1`, the GI50 with 786-0 renal is 3.56 µM; in the assay on SNB-75 CNS, 2.11 µM; in the assay on HS 578T breast, 2.74 µM; with RXF 393 renal, 2.78 µM; in the assay on A549 NSCLC, 3.8 µM; in the assay with OVCAR-5 ovarian it was 4.91 µM. The results for the GI50 in the assay with PC-3 prostate and in the assay on MCF7 breast were 4.28 µM and 3.2 µM, respectively. The TGI was > 100 µM in the assay with 786-0 renal; 7.32 µM in the assay with SNB-75 CNS; > 100 µM in the assay on HS 578T breast; 6.78 µM in the assay on RXF 393 renal; > 100 µM in the assay with A549 NSCLC; > 100 µM in the assay with OVCAR-5 ovarian. The TGI in the assay on PC-3 prostate and in the assay with MCF7 breast was > 100 µM in each case.

Take `CS(=O)(=O)c1ccc(C(=O)Nc2ccc(Cl)c(-c3ccccn3)c2)c(Cl)c1`: the GI50 was 41.9 µM and 5.24 µM in the assay on MALME-3M melanoma; 63.2 µM with 786-0 renal; 14.4 µM and 3.14 µM in the assay with SNB-75 CNS. Further, the TGI was > 100 µM and 31.6 µM with MALME-3M melanoma; > 100 µM and 13.2 µM with SW-620 colon; > 100 µM with 786-0 renal; > 100 µM and 79 µM with SNB-75 CNS; > 100 µM in the assay with HS 578T breast; > 100 µM and 21.2 µM in the assay with A549 NSCLC. Besides, the TGI with OVCAR-5 ovarian was > 100 µM and 94.6 µM; in the assay on PC-3 prostate it was > 100 µM and 33.7 µM; with MCF7 breast, > 100 µM and 14.9 µM.

For `CCN(C(=O)N1CCN(c2cc3c(cc2F)c(=O)c(C(=O)O)cn3C2CC2)CC1)c1nc(-c2ccc(C)cc2)cs1`, the GI50 in the assay on SW-620 colon was 0.653 µM; in the assay with 786-0 renal it was 0.954 µM; with SNB-75 CNS, 1.09 µM; in the assay with HS 578T breast, 0.46 µM; in the assay with RXF 393 renal, 0.38 µM; in the assay on A549 NSCLC, 0.42 µM. Moreover, the GI50 is 0.68 µM in the assay with OVCAR-5 ovarian, 0.375 µM in the assay with PC-3 prostate and 1.31 µM in the assay on MCF7 breast. Also, the TGI with SW-620 colon is > 100 µM; in the assay with 786-0 renal it was 10.8 µM; in the assay with SNB-75 CNS, 5.08 µM; in the assay on HS 578T breast, 4.28 µM; in the assay with RXF 393 renal, 4.2 µM; in the assay on A549 NSCLC, > 100 µM. For the same compound, the TGI in the assay with OVCAR-5 ovarian, in the assay on PC-3 prostate and with MCF7 breast was > 100 µM throughout.

In the case of `CCCn1c(C)nc2c1C(=O)c1ccccc1C2=O`, the GI50 with MALME-3M melanoma is 2.71 µM; in the assay with SW-620 colon, 33.5 µM; with 786-0 renal, 56.8 µM; with SNB-75 CNS it was 55.4 µM; with HS 578T breast it was 17.8 µM; with A549 NSCLC it was 28.5 µM. The GI50 in the assay with OVCAR-5 ovarian was > 100 µM; in the assay on PC-3 prostate, 11 µM; in the assay with MCF7 breast, 30.9 µM. Further, the TGI in the assay with MALME-3M melanoma is 9.35 µM; in the assay on SW-620 colon it was > 100 µM; in the assay with 786-0 renal, > 100 µM; in the assay with SNB-75 CNS it was > 100 µM; in the assay with HS 578T breast, > 100 µM; in the assay on A549 NSCLC, > 100 µM. Besides, the TGI in the assay on OVCAR-5 ovarian, in the assay with PC-3 prostate and in the assay on MCF7 breast was > 100 µM in each case.

`COc1ccc(C2CC(c3cc(OC)c(OC)c(OC)c3)=NN2C(C)=O)cc1OCC(=O)Nc1nc2ccc(C(F)(F)F)cc2s1` (configuration not stated): the GI50 in the assay on SW-620 colon was > 100 µM; with 786-0 renal it was 3.58 µM; in the assay on SNB-75 CNS, 1.55 µM; in the assay on HS 578T breast, 2.48 µM; in the assay on RXF 393 renal, 2.09 µM; in the assay on OVCAR-5 ovarian it was 28.2 µM. For the same compound, the GI50 with PC-3 prostate was 2.92 µM; in the assay with MCF7 breast, 4.02 µM. Moreover, the TGI is > 100 µM in the assay with SW-620 colon; 12.2 µM with 786-0 renal; 4.78 µM in the assay on SNB-75 CNS; 7.74 µM in the assay with HS 578T breast; 5.32 µM in the assay with RXF 393 renal; > 100 µM with OVCAR-5 ovarian. Further, the TGI in the assay with PC-3 prostate and in the assay on MCF7 breast was > 100 µM in each case.
